Results taken from article PMC9887672, “Predicting human cardiac QT alterations and pro-arrhythmic effects of compounds with a 3D beating heart-on-chip platform” (Toxicological Sciences, 2022).
Entries after “also recorded” stand apart in the source; their conditions may differ. Read-outs that look alike come from different tables or passages of the source.

How the values were obtained:
[1] = tested on: uHeart 3D cardiac microtissues (h-iPSC-CMs and dermal fibroblasts in fibrin); assay: Drug screening on uHeart: field potential recording (FPDcF, BP, AMP, arrhythmic events, beating cessation); conditions: for Arrhythmic events: detected (Y) or not (N) in uHeart; for Effect on FPDcF (in words) / Effect on beating period BP (in words) / Effect on spike amplitude AMP (in words): incremental doses; for Effect on FPDcF (in words): change vs baseline; for TdP risk category proposed from uHeart score: score vs ratio effective concentration/fETPC, Figure 6D; for [%FPDcF] >LOW, drug concentration: concentration causing FPDcF change by 10% vs baseline; for Arrhythmic events, lowest detected concentration: value in brackets in Table 2; for FPDcF alteration, direction, at [%FPDcF]>HIGH: threshold HIGH = 20% change vs baseline; for FPDcF alteration, direction, at [%FPDcF] >MID: threshold MID = 15% change vs baseline; for Concentration at which the described FPDcF change was seen: aspirine: increment just above LOW threshold, alfuzosin: slight shortening
Procedure: Human adult dermal fibroblasts were provided by Lonza Group Ltd. H-iPSC-CMs were thawed according to standard protocols and immediately used. Fibroblasts were expanded at confluency in DMEM (Gibco, 4.5 g l^−1 glucose) supplemented with 10% v/v FBS, 100 U ml^−1 penicillin, 100 μg ml^−1 streptomycin, and 10 mmol HEPES and used at passage 10–11. […] Subsequently, 2 μl of cell solution was inoculated into the central channel of each chamber of the uBeat Platform (provided by BiomimX Srl). The hydrogel was cross-linked in the incubator at 37°C for 8 min before manually adding the plating medium (FUJIFILM Cellular Dynamics Inc.) supplemented with 100 U ml^−1 penicillin, 100 μg ml^−1 streptomycin, and 2 mg ml^−1 of 6-Aminocaproic acid (ACA). […] This medium was used and changed every day for the following 6 days.
Field potential (FP) measurements (Figure 1B) were performed after 6 or 7 days of culture, when the model expresses a strong spontaneous and synchronous beating. […] An AgCl ground electrode was inserted in one of the 4 cell culture medium reservoirs. Cell culture medium was changed at least 1 h prior to perform the measurements. To execute the tests, uHeart was maintained in the incubator at 37°C with 5% CO2 and the electrodes were connected to an extracellular amplifier (Ext-02b, Npi Electronic GmbH, Germany) with a 1 × 10^4 gain and a bandpass filter between 0.3 Hz and 10 kHz. FPs were acquired with an electronic board (Analog Discovery 2, Digilent, Washington) at a rate of 2000 samples s^−1.
The cell culture medium was exchanged with fresh serum-free RPMI medium and after 1 h the baseline FP signal was recorded for at least 3 min. Subsequently, the lowest drug dose was administered to the microtissues and incubated at 37°C for 10–20 min before recording the corresponding FP for at least 3 min. Between each incremental dose, a 5-min washing was performed with serum-free RPMI medium.
Results of BP, FPD, and AMP assessed by the algorithm were compared against manual measurement. BP and FPD were additionally analyzed by applying an initial bandwidth filter to the signal (3rd order Butterworth filter, 0.67–100 Hz, zero phase), to further verify the quality of the estimates obtained. After the validation, the algorithm was used to analyze the FP signal recorded during the pharmacological campaign. Signals not correctly recognized by the software, as verified by visual inspection on the user interface, were manually analyzed.
For compounds not evoking responses, the maximum tested concentration respect to the fETPC was used.
A quality control was established to select the signals to be considered for the evaluation of electrophysiological parameters changes in response to increasing concentrations of compounds. […] This inclusion criteria ensured that the developed cardiac microtissues spontaneously beat in a consistent way and allowed to normalize the obtained FP signals with correction methods based on the beating frequency.

[2] = TdP risk category; ref Blinova et al., 2017; cited from earlier work
[3] = cited from earlier work; for fETPC: free effective therapeutic plasma concentration, ref Nguyen et al. (2017), Yamazaki et al. (2018)
[4] = design: method as in Mair et al., 2022; conditions: long incubation, after 7 days; ref Mair et al., 2022; cited from earlier work
[5] = clinical highest blood drug concentration, ref Blinova et al. (2017), Kopljar et al. (2018), Voelker and Hammer (2012)

COc1cc(N)c(Cl)cc1C(=O)NC1CCN(CCCOc2ccc(F)cc2)CC1OC (stereo not shown) [Cisapride]
Arrhythmic events, percentage of uHearts affected [1]: 50%
Stop, percentage of uHearts [1]: 25%
uHearts that ceased beating over uHearts tested [1]: 2 over 4
Stop (spontaneous beating cessation) ([1]; Y or N, also in words): interrupted the spontaneous beating of microtissues
Arrhythmic events ([1]; also in words): caused arrhythmic beats
Effect on FPDcF (in words) [1]: slightly decrease in the FPDcF; also recorded: shortened the repolarization time at all considered thresholds; also recorded: did not revealed a FPDcF prolongation
TdP risk category proposed from uHeart score [1]: high risk
Risk CiPa [2]: I

CC(C)NCC(O)c1ccc(NS(C)(=O)=O)cc1 (stereo not shown) [Sotalol]
Arrhythmic events ([1]; also in words): did not elicit any arrhythmia; also recorded: not found to provoke arrhythmic events
Effect on beating period BP (in words) [1]: slightly increased the BP; also recorded: drug dose dependent increase of the BP
Effect on FPDcF (in words) [1]: prolonged the FPDcF above the defined thresholds; also recorded: dose-related FPDcF prolongation
TdP risk category proposed from uHeart score [1]: high risk

COc1ccccc1OCC(O)CN1CCN(CC(=O)Nc2c(C)cccc2C)CC1 (stereo not shown) [Ranolazine]
Arrhythmic events, percentage of uHearts affected [1]: 20%
Arrhythmic events ([1]; also in words): generated arrhythmia; also recorded: caused arrhythmic beating
Effect on beating period BP (in words) [1]: increase the BP
Effect on FPDcF (in words) [1]: statistically enhanced the repolarization time; also recorded: prolonged the FPDcF; also recorded: dose-related FPDcF prolongation
Effect on beating period BP (in words) ([1]; listed as ranolazine): rose the BP
TdP risk category proposed from uHeart score [1]: high-risk

C=C[C@H]1C[N@@]2CC[C@H]1C[C@@H]2[C@@H](O)c1ccnc2ccc(OC)cc12 [Quinidine]
Arrhythmic events, percentage of uHearts affected [1]: 50%
[%FPDcF] >LOW, drug concentration [1]: 0.06 µM
[%FPDcF] >MID, drug concentration ([1]; concentration causing FPDcF change by 15% vs baseline): 1 µM
[%FPDcF]>HIGH, drug concentration ([1]; concentration causing FPDcF change by 20% vs baseline): 10 µM
Arrhythmic events ([1]; also in words): Arrhythmic events were detected
Effect on beating period BP (in words) [1]: slightly increased the BP
Effect on FPDcF (in words) [1]: prolonged the FPDcF above the defined thresholds; also recorded: dose-related FPDcF prolongation
TdP risk category proposed from uHeart score [1]: high risk
Arrhythmic events, lowest detected concentration [1]: 0.1 µM
Cmax [3, 5]: 3000 nM
fETPC [3]: 3 µM

Cc1cccc(C)c1OCC(C)N (stereo not shown) [Mexiletine]
Concentration at which AMP statistically decreased ([1]; already at medium concentration): 10 µM
[%FPDcF] >LOW, drug concentration [1]: 50 µM
Effect on beating period BP (in words) [1]: did not show a trend in altering neither the FPDcF nor the BP; also recorded: without majorly affecting the FPDcF or the BP
Effect on spike amplitude AMP (in words) [1]: statistically decreased in a concentration-dependent way; also recorded: dose-related statistically significant reduction of the FP amplitude
TdP risk category proposed from uHeart score [1]: low-risk
FPDcF alteration, direction, at [%FPDcF]>HIGH [1]: ↔ [drawing 21]
FPDcF alteration, direction, at [%FPDcF] >MID [1]: ↔ [drawing 20]
fETPC [3]: 2.5 µM

CC(C)(C)c1ccc(C(O)CCCN2CCC(C(O)(c3ccccc3)c3ccccc3)CC2)cc1 (stereo not shown) [Terfenadine]
Arrhythmic events, percentage of uHearts affected [1]: 60%
Concentration at which FPDcF was statistically prolonged ([1]; Kruskal-Wallis with Dunn's test): 0.3 µM
Concentration found effective in uHeart ([1]; as quoted in Discussion): 100 µM
Arrhythmic events ([1]; also in words): arrhythmic events
Effect on beating period BP (in words) [1]: without affecting the BP
Effect on FPDcF (in words) [1]: statistically prolonged the FPDcF at high dosages; also recorded: prolongation of the FPDcF
TdP risk category proposed from uHeart score [1]: high risk
Arrhythmic events, lowest detected concentration [1]: 0.001 µM
Cmax [3, 5]: 0.29 nM
fETPC [3]: 0.00029 µM
fETPC in the presence of metabolic inhibition ([3]; patients, cytochrome P450 inhibitor, ref Redfern et al., 2003): about 4 nM
Cmax ([3]; read-out: Cmax or fETPC, clinical value of patients, ref Ando et al., 2017): 0.29 nM
Reduction of compound by absorption in PDMS [4]: about 20%

COc1cc2nc(N(C)CCCNC(=O)C3CCCO3)nc(N)c2cc1OC (stereo not shown) [Alfuzosin]
Concentration at which the described FPDcF change was seen [1]: 0.3 µM
FPDcF prolongation ([1]; at high concentration (ie,100 µM)): ~10%
[%FPDcF] >LOW, drug concentration [1]: 0.3 µM
Arrhythmic events ([1]; also in words): caused arrhythmic beating
Effect on FPDcF (in words) [1]: did not showed a peculiar trend
Effect on FPDcF (in words) ([1]; listed as alfuzosin): shortening
TdP risk category proposed from uHeart score [1]: low-risk
FPDcF alteration, direction, at [%FPDcF]>HIGH [1]: ↔ [drawing 30]
FPDcF alteration, direction, at [%FPDcF] >MID [1]: ↔ [drawing 29]
Cmax [3, 5]: 15 nM
fETPC [3]: 0.01 µM

CC(=O)Oc1ccccc1C(=O)O [Aspirin]
Concentration at which the described FPDcF change was seen [1]: 300 µM
Effect on FPDcF (in words) [1]: did not change the FPDcF
Effect on FPDcF (in words) ([1]; listed as aspirine): increment of the FPDcF just above the LOW threshold only at the highest concentration tested
TdP risk category proposed from uHeart score [1]: low-risk
FPDcF alteration, direction, at [%FPDcF]>HIGH [1]: ↔ [drawing 33]
FPDcF alteration, direction, at [%FPDcF] >LOW ([1]; threshold LOW = 10% change vs baseline): ↔ [drawing 31]
FPDcF alteration, direction, at [%FPDcF] >MID [1]: ↔ [drawing 32]
Cmax [3, 5]: 24400 nM
fETPC [3]: 7.1 µM

CN(CCOc1ccc(NS(C)(=O)=O)cc1)CCc1ccc(NS(C)(=O)=O)cc1 [Dofetilide]
Arrhythmic events, percentage of uHearts affected [1]: 66%
Stop, percentage of uHearts [1]: 33%
uHearts that ceased beating over uHearts tested [1]: 1 over 3
Arrhythmic events ([1]; also in words): Arrhythmic events were detected
Effect on beating period BP (in words) [1]: slightly increased the BP
Effect on spike amplitude AMP (in words) [1]: incremental decrease in the AMP
Effect on FPDcF (in words) [1]: concentration-dependent prolongation of the FPDcF
Effect on FPDcF (in words) ([1]; listed as dofetilide): prolonged the FPDcF above the defined thresholds; also recorded: dose-related FPDcF prolongation
TdP risk category proposed from uHeart score [1]: high risk
